For test [1], the target named is mTOR (human recombinant aa mTOR 1360-2549) (Homo sapiens (Human), UniProt P42345). In words: mTOR enzymatic test by TR-FRET (phosphorylation of GFP-4EBP1). It counts as biochemical. The method, boiled down: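 After a 30 min room-temperature kinase reaction, EDTA (10 mM final) and Tb-labelled phospho-Thr46 antibody (2 nM final) were added and incubated 60 min. Energy transfer from Tb to phosphorylated GFP-4EBP1 was read at 340 nm excitation, emissions 490/520 nm. Values derive from the 520/490 fluorescence ratio.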
Background: In TR-FRET formats the signal depends on donor and acceptor labels being close together.

The subject of the next test is U87MG tumour cells. The test can be described thus: Test of in vitro proliferation of U87MG tumour cells. The settings on record: Homo sapiens, U-87 MG, 72 h, U87MG cells, 72 hours; read-out: U87 Cell Proliferation IC50. In kind it is cell-based. Here is the method:
Model 4: Test of in vitro Proliferation of U87MG Tumour Cells.
The cell growth is determined with the reagent CellTiter 96 AQueous One Solution Cell Proliferation Assay from Promega (Cat. No. G3581).

For another test, the target named is PI3Kα (p110α/p85α) (Homo sapiens (Human), UniProt P42336). In words: PI3Kα enzymatic test by measuring the consumption of ATP. It counts as biochemical. An outline of the steps:
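ATP consumption read out by KinaseGlo luminescence after a 90 min reaction of 1.7 μg/ml PI3Kα (p110α/p85α) with 2 μM ATP and 50 μM PIP2, buffered at pH 7.5 (Tris, 10 mM MgCl2, 1 mM EGTA, 0.03% Chaps, 1 mM DTT). Threefold dilution series over ≥10 000-fold range yield IC50.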

The next test deals with Akt-pS473 in U87MG cells. The conditions noted are these: Homo sapiens, U-87 MG; for IC50: read-out: U87 Akt-pS473 % Inhibition or IC50, nM (IC50), U87MG cells.

Molecules are shown by their SMILES. pIC50: −log10 of the molar value.

The source of these data is US9120812B2, “Pyrimidooxazocine derivatives as mTOR-inhibitors” (SANOFI, priority 2012, dated 2015).

Sequence of PI3Kα (p110α/p85α) (P42336 whole entry): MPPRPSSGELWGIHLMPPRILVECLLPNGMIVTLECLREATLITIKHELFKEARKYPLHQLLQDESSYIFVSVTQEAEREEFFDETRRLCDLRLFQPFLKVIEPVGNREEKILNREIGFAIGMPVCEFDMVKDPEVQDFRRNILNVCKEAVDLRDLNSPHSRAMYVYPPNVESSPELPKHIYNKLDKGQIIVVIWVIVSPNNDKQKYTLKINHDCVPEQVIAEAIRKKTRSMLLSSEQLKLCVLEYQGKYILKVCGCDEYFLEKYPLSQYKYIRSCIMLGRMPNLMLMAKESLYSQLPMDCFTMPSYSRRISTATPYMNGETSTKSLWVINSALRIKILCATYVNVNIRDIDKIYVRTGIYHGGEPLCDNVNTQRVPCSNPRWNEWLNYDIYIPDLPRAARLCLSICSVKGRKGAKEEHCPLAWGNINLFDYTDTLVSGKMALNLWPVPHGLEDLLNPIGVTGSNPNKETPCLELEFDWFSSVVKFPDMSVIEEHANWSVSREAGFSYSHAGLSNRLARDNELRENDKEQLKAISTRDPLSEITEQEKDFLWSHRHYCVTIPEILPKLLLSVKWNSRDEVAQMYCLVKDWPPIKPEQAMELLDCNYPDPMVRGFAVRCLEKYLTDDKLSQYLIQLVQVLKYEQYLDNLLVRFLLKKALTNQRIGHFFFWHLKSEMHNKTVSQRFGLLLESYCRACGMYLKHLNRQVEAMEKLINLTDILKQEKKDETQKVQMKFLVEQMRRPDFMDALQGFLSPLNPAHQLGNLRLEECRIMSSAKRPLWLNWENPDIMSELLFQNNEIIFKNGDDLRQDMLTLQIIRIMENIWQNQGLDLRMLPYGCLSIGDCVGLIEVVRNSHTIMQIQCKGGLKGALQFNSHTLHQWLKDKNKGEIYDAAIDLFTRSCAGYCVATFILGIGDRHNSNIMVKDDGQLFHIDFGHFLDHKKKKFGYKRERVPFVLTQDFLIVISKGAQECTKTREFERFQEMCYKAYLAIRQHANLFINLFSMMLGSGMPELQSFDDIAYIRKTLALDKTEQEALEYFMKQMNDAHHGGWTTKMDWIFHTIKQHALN
Sequence of PI3Kα (p110α/p85α) (P27986 whole entry partner): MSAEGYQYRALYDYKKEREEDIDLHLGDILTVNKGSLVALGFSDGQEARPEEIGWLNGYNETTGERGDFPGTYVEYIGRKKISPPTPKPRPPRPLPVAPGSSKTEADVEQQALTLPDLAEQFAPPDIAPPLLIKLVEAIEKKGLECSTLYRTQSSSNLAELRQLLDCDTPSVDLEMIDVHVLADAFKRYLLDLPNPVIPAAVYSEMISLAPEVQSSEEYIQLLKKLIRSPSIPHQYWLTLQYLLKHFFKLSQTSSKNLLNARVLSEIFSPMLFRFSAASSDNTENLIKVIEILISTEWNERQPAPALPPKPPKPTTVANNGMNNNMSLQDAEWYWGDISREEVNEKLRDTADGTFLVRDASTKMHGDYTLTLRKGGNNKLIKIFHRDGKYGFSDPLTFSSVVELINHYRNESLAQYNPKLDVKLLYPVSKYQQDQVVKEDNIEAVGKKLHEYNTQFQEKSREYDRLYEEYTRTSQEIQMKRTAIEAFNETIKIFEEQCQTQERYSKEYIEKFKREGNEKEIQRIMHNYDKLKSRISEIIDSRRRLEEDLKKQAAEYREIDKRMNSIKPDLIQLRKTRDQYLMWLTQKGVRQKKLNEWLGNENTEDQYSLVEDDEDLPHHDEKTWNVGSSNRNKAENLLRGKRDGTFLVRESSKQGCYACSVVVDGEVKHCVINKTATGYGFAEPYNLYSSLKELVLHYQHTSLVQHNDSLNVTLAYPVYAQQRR
Sequence of mTOR (human recombinant aa mTOR 1360-2549) (P42345 1360-2549): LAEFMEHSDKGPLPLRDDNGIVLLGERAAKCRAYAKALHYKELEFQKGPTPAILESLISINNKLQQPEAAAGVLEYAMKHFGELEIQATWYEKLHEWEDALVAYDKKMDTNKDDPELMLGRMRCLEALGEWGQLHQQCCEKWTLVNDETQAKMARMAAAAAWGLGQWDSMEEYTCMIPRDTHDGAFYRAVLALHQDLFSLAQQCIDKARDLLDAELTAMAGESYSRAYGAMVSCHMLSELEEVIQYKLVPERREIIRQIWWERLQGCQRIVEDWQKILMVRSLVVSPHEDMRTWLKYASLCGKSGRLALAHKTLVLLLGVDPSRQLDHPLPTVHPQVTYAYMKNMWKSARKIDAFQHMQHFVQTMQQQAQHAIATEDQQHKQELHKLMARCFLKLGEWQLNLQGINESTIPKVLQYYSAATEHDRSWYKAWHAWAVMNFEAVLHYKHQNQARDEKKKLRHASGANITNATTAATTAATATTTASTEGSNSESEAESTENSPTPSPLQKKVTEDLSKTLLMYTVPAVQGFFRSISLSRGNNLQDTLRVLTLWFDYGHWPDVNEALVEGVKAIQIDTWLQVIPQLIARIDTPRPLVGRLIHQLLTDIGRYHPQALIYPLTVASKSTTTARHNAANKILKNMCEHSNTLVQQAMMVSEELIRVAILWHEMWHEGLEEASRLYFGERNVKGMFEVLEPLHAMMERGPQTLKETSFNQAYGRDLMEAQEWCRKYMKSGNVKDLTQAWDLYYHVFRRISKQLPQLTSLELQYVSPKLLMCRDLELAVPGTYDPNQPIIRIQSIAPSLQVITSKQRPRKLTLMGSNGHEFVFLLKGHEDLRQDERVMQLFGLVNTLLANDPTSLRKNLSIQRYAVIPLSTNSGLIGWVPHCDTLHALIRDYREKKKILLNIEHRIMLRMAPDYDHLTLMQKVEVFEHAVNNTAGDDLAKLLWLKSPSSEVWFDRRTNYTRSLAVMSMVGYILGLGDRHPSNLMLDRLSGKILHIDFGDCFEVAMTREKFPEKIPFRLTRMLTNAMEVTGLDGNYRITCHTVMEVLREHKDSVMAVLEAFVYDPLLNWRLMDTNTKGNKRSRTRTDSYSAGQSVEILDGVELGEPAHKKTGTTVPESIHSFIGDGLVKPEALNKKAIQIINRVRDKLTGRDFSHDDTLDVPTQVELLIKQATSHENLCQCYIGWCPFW

In the case of `CCN1CC(C)(C)Oc2nc(N3CCOC[C@@H]3C)nc(-c3ccc(NC(=O)Nc4ccnc(C)c4)c(F)c3)c2C1=O` [Example 199, 1-{4-[6-Ethyl-8,8-dimethyl-2-((S)-3-methylmorpholin-4-yl)-5-oxo-5,6,7,8-tetrahydro-9-oxa-1,3,6-triazabenzocyclohepten-4-yl]-2-fluorophenyl}-3-(2-methylpyridin-4-yl)urea], the pIC50 in test [1] is 7.41; in the test on U87MG tumour cells, 7.49. Also, at PI3Kα (p110α/p85α), the “PI3Ka IC50” value is 174 nM. The IC50 – broadly, the concentration that gives 50% inhibition – with Akt-pS473 in U87MG cells came out at 10 nM.
For the compound `CCN1CC(C)(C)Oc2nc(N3CC4CCC(C3)O4)nc(-c3ccc(NC(=O)Nc4ccc(N5CCOCC5)nc4)c(F)c3)c2C1=O` [Example 200, 1-{4-[6-Ethyl-8,8-dimethyl-2-(8-oxa-3-azabicyclo[3.2.1]oct-3-yl)-5-oxo-5,6,7,8-tetrahydro-9-oxa-1,3,6-triazabenzocyclohepten-4-yl]-2-fluorophenyl}-3-(6-morpholin-4-ylpyridin-3-yl)urea], the pIC50 was 7.28 in test [1] and 6.97 in the test with U87MG tumour cells. Also, on PI3Kα (p110α/p85α), the “PI3Ka IC50” value was more than 10000 nM. Also, the IC50 with Akt-pS473 in U87MG cells came out at 9 nM.
With `COCCN1CC(C)(C)Oc2nc(N3CCOC[C@@H]3C)nc(-c3ccc(NC(=O)Nc4cnn(C)c4)cc3)c2C1=O` [Example 201, 1-{4-[6-(2-Methoxyethyl)-8,8-dimethyl-2-((S)-3-methylmorpholin-4-yl)-5-oxo-5,6,7,8-tetrahydro-9-oxa-1,3,6-triazabenzocyclohepten-4-yl]phenyl}-3-(1-methyl-1H-pyrazol-4-yl)urea], the pIC50 in test [1] was 7.32; in the test with U87MG tumour cells, 6.05. Besides, the “PI3Ka IC50” value at PI3Kα (p110α/p85α) was 813 nM. For the same compound, the IC50 with Akt-pS473 in U87MG cells is 230 nM.
`CCN1CC(C)(C)Oc2nc(N3CCOC[C@@H]3C)nc(-c3ccc(NC(=O)Nc4ccccc4F)cc3)c2C1=O` [Example 202, 1-{4-[6-Ethyl-8,8-dimethyl-2-((S)-3-methylmorpholin-4-yl)-5-oxo-5,6,7,8-tetrahydro-9-oxa-1,3,6-triazabenzocyclohepten-4-yl]phenyl}-3-(2-fluorophenyl)urea]: the pIC50 in test [1] was 7.72; in the test on U87MG tumour cells, 7.14. The “PI3Ka IC50” value at PI3Kα (p110α/p85α) is 213 nM. Moreover, the IC50 in the test with Akt-pS473 in U87MG cells came to 5 nM.
On to `CCN1CC(C)(C)Oc2nc(N3CC4CCC(C3)O4)nc(-c3ccc(NC(=O)Nc4ccc(CN5CCCCC5)cc4)cc3)c2C1=O` [Example 203, 1-{4-[6-Ethyl-8,8-dimethyl-2-(8-oxa-3-azabicyclo[3.2.1]oct-3-yl)-5-oxo-5,6,7,8-tetrahydro-9-oxa-1,3,6-triazabenzocyclohepten-4-yl]phenyl}-3-(4-piperidin-1-ylmethylphenyl)urea], for which the pIC50 is 7.02 in test [1] and 7.37 in the test with U87MG tumour cells. The “PI3Ka IC50” value at PI3Kα (p110α/p85α) is reported as 9610 nM. In addition, in the test on Akt-pS473 in U87MG cells, the concentration for half-maximal inhibition (IC50) is 111 nM.
For `CCN1CC(C)(C)Oc2nc(N3CCOC[C@@H]3C)nc(-c3ccc(NC(=O)Nc4cccc(OC(F)F)c4)cc3)c2C1=O` [Example 204, 1-(3-Difluoromethoxyphenyl)-3-{4-[6-ethyl-8,8-dimethyl-2-((S)-3-methylmorpholin-4-yl)-5-oxo-5,6,7,8-tetrahydro-9-oxa-1,3,6-triazabenzocyclohepten-4-yl]phenyl}urea], the pIC50 is 7.21 in test [1] and 7.13 in the test with U87MG tumour cells. Further, the “PI3Ka IC50” value on PI3Kα (p110α/p85α) came to 468 nM. For the same compound, the IC50 in the test on Akt-pS473 in U87MG cells was found to be 18 nM.
In the same order, the values of `CCN1CC(C)(C)Oc2nc(N3CC4CCC(C3)O4)nc(-c3ccc(NC(=O)Nc4ccc(N5CCN(C)CC5)cc4)cc3)c2C1=O` [Example 205, 1-{4-[6-Ethyl-8,8-dimethyl-2-(8-oxa-3-azabicyclo[3.2.1]oct-3-yl)-5-oxo-5,6,7,8-tetrahydro-9-oxa-1,3,6-triazabenzocyclohepten-4-yl]phenyl}-3-[4-(4-methylpiperazin-1-yl)phenyl]urea] are 7.20, 7.66, 3740 nM and 13 nM.
For the compound `CCN1CC(C)(C)Oc2nc(N3C[C@@H]4C[C@H]3CO4)nc(-c3ccc(NC(=O)NC)c(F)c3)c2C1=O` [Example 206, 1-[4-((1S,4S)-6-Ethyl-8,8-dimethyl-2-2-oxa-5-azabicyclo[2.2.1]hept-5-yl-5-oxo-5,6,7,8-tetrahydro-9-oxa-1,3,6-triazabenzocyclohepten-4-yl)-2-fluorophenyl]-3-methylurea], the pIC50 was 6.84 in test [1] and 5.87 in the test on U87MG tumour cells. The “PI3Ka IC50” value on PI3Kα (p110α/p85α) is more than 10000 nM. Also, the inhibition (usually the relative decrease from the control value, in per cent) at 1 µM with Akt-pS473 in U87MG cells (read-out: U87 Akt-pS473 % Inhibition) was determined as 87%.
Turning to `CCN1CC(C)(C)Oc2nc(N3C4CCC3COC4)nc(-c3ccc(NC(=O)NC)c(F)c3)c2C1=O` [Example 207, 1-{4-[6-Ethyl-8,8-dimethyl-2-(3-oxa-8-azabicyclo[3.2.1]oct-8-yl)-5-oxo-5,6,7,8-tetrahydro-9-oxa-1,3,6-triazabenzocyclohepten-4-yl]-2-fluorophenyl}-3-methylurea], the values for the pIC50 (in test [1]; in the test with U87MG tumour cells) were 7.74 and 7.13, respectively. In addition, the “PI3Ka IC50” value on PI3Kα (p110α/p85α) was more than 10000 nM. In the test with Akt-pS473 in U87MG cells, the half-maximal inhibitory concentration (IC50) came out at 19 nM.
Take `CCN1CC(C)(C)Oc2nc(N3CCOC[C@@H]3C)nc(-c3ccc(NC(=O)Nc4cc(OC)c(F)cc4F)cc3)c2C1=O` [Example 208, 1-(2,4-Difluoro-5-methoxyphenyl)-3-{4-[6-ethyl-8,8-dimethyl-2-((S)-3-methylmorpholin-4-yl)-5-oxo-5,6,7,8-tetrahydro-9-oxa-1,3,6-triazabenzocyclohepten-4-yl]phenyl}urea]: the results for the pIC50 (in test [1]; with U87MG tumour cells) were 7.09 and 6.74, respectively. Moreover, the “PI3Ka IC50” value on PI3Kα (p110α/p85α) was 1240 nM. In addition, in the test with Akt-pS473 in U87MG cells, the concentration for half-maximal inhibition (IC50) turned out to be 26 nM.
Regarding `CCN1CC(C)(C)Oc2nc(N3CCOC[C@@H]3C)nc(-c3ccc(NC(=O)OCCO)c(F)c3)c2C1=O` [Example 209, {4-[6-Ethyl-8,8-dimethyl-2-((S)-3-methylmorpholin-4-yl)-5-oxo-5,6,7,8-tetrahydro-9-oxa-1,3,6-triazabenzocyclohepten-4-yl]-2-fluorophenyl}carbamic acid 2-hydroxyethyl ester], the pIC50 in test [1] is 6.81; in the test on U87MG tumour cells, 5.98. Also, the “PI3Ka IC50” value on PI3Kα (p110α/p85α) is given as more than 10000 nM. Further, in the test on Akt-pS473 in U87MG cells, the concentration for half-maximal inhibition (IC50) turned out to be 69 nM.
On to `CNC(=O)Nc1ccc(-c2nc(N3CC4CCC(C3)O4)nc3c2C(=O)N(CCOC)CC(C)(C)O3)cc1F` [Example 210, 1-{2-Fluoro-4-[6-(2-methoxyethyl)-8,8-dimethyl-2-(8-oxa-3-azabicyclo[3.2.1]oct-3-yl)-5-oxo-5,6,7,8-tetrahydro-9-oxa-1,3,6-triazabenzocyclohepten-4-yl]phenyl}-3-methylurea], for which the pIC50 in test [1] is 7.39; with U87MG tumour cells, 6.20. The “PI3Ka IC50” value on PI3Kα (p110α/p85α) is more than 10000 nM. In addition, in the test with Akt-pS473 in U87MG cells, the concentration for half-maximal inhibition (IC50) is 174 nM.
With `CCNC(=O)Nc1ccc(-c2nc(N3CC4CCC(C3)O4)nc3c2C(=O)N(CCOC)CC(C)(C)O3)cc1F` [Example 211, 1-Ethyl-3-{2-fluoro-4-[6-(2-methoxyethyl)-8,8-dimethyl-2-(8-oxa-3-azabicyclo[3.2.1]oct-3-yl)-5-oxo-5,6,7,8-tetrahydro-9-oxa-1,3,6-triazabenzocyclohepten-4-yl]phenyl}urea], the pIC50 in test [1] was 7.06; in the test on U87MG tumour cells, 6.05. Moreover, at PI3Kα (p110α/p85α), the “PI3Ka IC50” value is on record as more than 10000 nM. The concentration for half-maximal inhibition (IC50) with Akt-pS473 in U87MG cells is 270 nM.
As for `CCN1CC(C)(C)Oc2nc(N3CCOC[C@@H]3C)nc(-c3ccc(NC(=O)Nc4cccc(OC(F)F)c4)c(F)c3)c2C1=O` [Example 212, 1-(3-Difluoromethoxyphenyl)-3-{4-[6-ethyl-8,8-dimethyl-2-((S)-3-methylmorpholin-4-yl)-5-oxo-5,6,7,8-tetrahydro-9-oxa-1,3,6-triazabenzocyclohepten-4-yl]-2-fluorophenyl}urea], the pIC50 in test [1] was 6.85; in the test on U87MG tumour cells, 7.15. In addition, the “PI3Ka IC50” value at PI3Kα (p110α/p85α) stood at 1540 nM. In addition, in the test with Akt-pS473 in U87MG cells, the half-inhibitory concentration (IC50) worked out at 8 nM.
For the compound `CCN1CC(C)(C)Oc2nc(N3CCOC[C@@H]3C)nc(-c3ccc(NC(=O)Nc4cc(OC)ccc4F)cc3)c2C1=O` [Example 213, 1-{4-[6-Ethyl-8,8-dimethyl-2-((S)-3-methylmorpholin-4-yl)-5-oxo-5,6,7,8-tetrahydro-9-oxa-1,3,6-triazabenzocyclohepten-4-yl]phenyl}-3-(2-fluoro-5-methoxyphenyl)urea], the pIC50 in test [1] was 7.32; in the test with U87MG tumour cells, 6.99. For the same compound, on PI3Kα (p110α/p85α), the “PI3Ka IC50” value is recorded as 991 nM. In addition, in the test on Akt-pS473 in U87MG cells, the 50% inhibitory concentration (IC50) stood at 20 nM.
As to `CCN1CC(C)(C)Oc2nc(N3CCOC[C@@H]3C)nc(-c3ccc(NC(=O)OCC(C)(C)O)cc3)c2C1=O` [Example 214, {4-[6-Ethyl-8,8-dimethyl-2-((S)-3-methylmorpholin-4-yl)-5-oxo-5,6,7,8-tetrahydro-9-oxa-1,3,6-triazabenzocyclohepten-4-yl]phenyl}carbamic acid 2-hydroxy-2-methylpropyl ester], the pIC50 is 5.61 in test [1] and less than 5.00 in the test on U87MG tumour cells. For the same compound, the “PI3Ka IC50” value on PI3Kα (p110α/p85α) is more than 10000 nM. Moreover, the IC50 in the test with Akt-pS473 in U87MG cells was more than 1000 nM.
